Results: patent US7462362B2, “Antifungal nail coat and method of use” (NexMed Holdings, Inc., priority 2003, dated 2008)
Counter-ions that a name gives are not always drawn.

Key:
[1] = tested on: T. mentagrophytes, (ATCC 24953); test: MFC assay by subculturing the microtiter wells from the MIC test; type: cell-based, Trichophyton mentagrophytes
Experimental: Dermatophyte isolates are subcultured onto Potato Dextrose Agar (PDA) and incubated at a temperature of about 30° C. for a period of about 4 to about 5 days or until good conidiation is produced. T rubrum isolates are subcultured onto cereal (oatmeal) agar instead of PDA in order to induce conidia production. A suspension of conidia in sterile saline is made by gently swabbing the colony surface with a sterile swab. The suspension is allowed to settle for about 5 to about 10 minutes and the conidia is counted using a hemocytometer. Working suspensions of conidia are prepared in 10 ml RPMI 1604 (Difco Laboratories) medium to a final concentration of 1 to 3×10^3 CFU/ml. Yeast controls are subcultured onto PDA and incubated at a temperature of about 35° C. for about 48 hours. Yeast inocula are prepared to a final concentration of 0.5 to 2.5×10^3 CFU/ml. For MIC assay, each drug concentration well and growth control well is inoculated with 100 microliters of cell suspension, and the final volume in each microtiter well is 200 microliters. The dermatophyte plates are incubated at a temperature of about 35° C. for 4 days (yeast controls for 48 hours). […]
MIC assay was determined using the broth dilution procedure described in Example 8 performed in microtiter wells with RPMI 1604 as the diluent. […] The zone of inhibition size was measured (diameter of area remaining clear, i.e., lacking growth).

[2] = tested on: T. mentagrophytes, (ATCC 24953); test: Modified NCCLS M38-A broth microdilution MIC assay; type: cell-based, Trichophyton mentagrophytes
Source text: The broth microdilution method was a modification of a NCCLS M38-A standard method for the susceptibility testing of conidium-forming filamentous fungi of the National Committee for Clinical Laboratory Standards (NCCLS). The modified method was developed at the Center for Medical Mycology, University Hospitals of Cleveland, Cleveland, Ohio, based on the method described in Jessup, et al., “Antifungal Susceptibility Testing of Dermatophytes: Establishing a Medium for Inducing Conidial Growth and Evaluation of Susceptibility of Clinical Isolates,” Journal of Clinical Microbiology, 38, 341-344, published by the American Society for Microbiology (2000), the disclosures of which are incorporated herein by reference. Based on a multicenter study of the reproducibility of the modified method for testing dermatophytes, adoption of the modified method as an amendment to the NCCLS M38-A standard has been proposed. […]
Dermatophyte isolates are subcultured onto Potato Dextrose Agar (PDA) and incubated at a temperature of about 30° C. for a period of about 4 to about 5 days or until good conidiation is produced. […] The suspension is allowed to settle for about 5 to about 10 minutes and the conidia is counted using a hemocytometer. […]
MIC assay was determined using the broth dilution procedure described in Example 8 performed in microtiter wells with RPMI 1604 as the diluent. […]

[3] = tested on: T. mentagrophytes, (ATCC 24953); test: Agar diffusion plate assay, zone of inhibition (Example 9); type: cell-based, Trichophyton mentagrophytes; details: undiluted composition
Source text: For the agar diffusion assay, the standardized inoculum of conidia is applied to the surface of a Potato Dextrose Agar plate and allowed to dry. Wells are then cut into the agar and the test composition is put into the wells and allowed to diffuse and antifungal activity is evidenced by zones of growth inhibition (i.e., area remaining clear, lacking growth) on the surface of the plates measured in millimeters (mm) diameter.
The fungicidal activity of terbinafine hydrochloride against the dermatophytic fungi, T. mentagrophytes, (ATCC 24953), is illustrated in the modified NCCLS broth dilution assay described in Example 8, based on minimum inhibitory concentration (MIC) and minimum fungicidal concentration (MFC) as well as an agar diffusion plate assay measuring the zones of inhibition.
MIC assay was determined using the broth dilution procedure described in Example 8 performed in microtiter wells with RPMI 1604 as the diluent. Serial dilutions of each test composition were made in RPMI diluent, and then 100 μl of undiluted test composition and of each diluted composition was added to a respective microtiter well. Conidial suspension (100 μl) was then added to each well and the plates were incubated at an incubation temperature of about 35° C. for an incubation period of 4 days dermatophytes, and 48 hours for yeasts. […], undiluted test composition was added to wells cut into the agar and allowed to diffuse. The MIC endpoint was the lowest concentration that inhibited 80% of fungal growth as compared to the growth control. The MFC endpoint was the lowest concentration to produce 1-2 colonies. The zone of inhibition size was measured (diameter of area remaining clear, i.e., lacking growth).

[4] = In vitro diffusion of terbinafine across a nail membrane (human nail clippings); type: in vitro ADME; details: applied as a 10% solution in ethanol
[5] = Release/retention of terbinafine hydrochloride from treated human nail clippings in ethyl alcohol; type: in vitro ADME; details: FIG. 2
Experimental: The terbinafine-treated nail clippings were then separately recovered from each test solution and rinsed with 10 mL of ethyl alcohol to remove antifungal liquid from the surface cavity. The rinsed nail clippings from each test were then separately immersed in another 5 mL portion of anhydrous ethyl alcohol to assess the rate of terbinafine release from the nail structure, by determining the concentration of terbinafine hydrochloride released as a function of time using the HPLC technique described above.

## CN(C/C=C/C#CC(C)(C)C)Cc1cccc2ccccc12 [9(G), terbinafine hydrochloride]
[1]; Trichophyton mentagrophytes, ATCC24953, lowest concentration to produce 1-2 colonies
  MFC: 0.125 µg/mL
[1]; in words
  fungicidal efficacy as judged from MFC assays: substantially equivalent
[2]; Trichophyton mentagrophytes, ATCC24953, 96 h, 80% growth inhibition, 35° C., 4 days
  MIC: 0.03 µg/mL
[3]; hydrochloride
  Zone size (mm): 18 mm

## CN(C/C=C/C#CC(C)(C)C)Cc1cccc2ccccc12 [terbinafine, (E)-N-(6,6-dimethyl-2-hepten-4-ynyl)-N-methyl-1-naphthalene methanamine]
[4]
  period to reach a concentration above the minimum inhibition concentration (MIC) for fungi across nail membrane: about one

## CN(C/C=C/C#CC(C)(C)C)Cc1cccc2ccccc12 [terbinafine hydrochloride]
[5]
  period for amount of terbinafine hydrochloride retained in the nail to reach equilibrium: about 10 hours

## CCCCCCCCCCCCOC(=O)C(C)N(C)C.Cl (stereo not drawn) [9(E), dodecyl-2-(N,N-dimethylamino) isopropionate hydrochloride]
[2]; in words
  efficacy as judged from MIC assays: at most some weak efficacy
[3]
  Zone size (mm): Zero

## CN(C/C=C/C#CC(C)(C)C)Cc1cccc2ccccc12 [9(F), terbinafine hydrochloride]
[3]; hydrochloride
  Zone size (mm): 80 mm
